What all share (type): cell-based
The test system of assay [1] is Renal cancer cell line ACHN cell. As to the kind of experiment: Growth inhibitory effect against cancer cell lines (3H-thymidine uptake), ACHN. To be noted: Homo sapiens, ACHN. The essentials: (§1)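 Cells seeded at 1.0×10^4/well, grown 24 hrs, then exposed to compound in DMSO for 18 hrs before 6 hrs pulse with ^3H-thymidine (0.25 μCi/well). Harvested cell-incorporated radioactivity counted; IC50 is the concentration halving uptake versus DMSO control, triplicate.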

Assay [2] relates to colorectal cancer cell line HT-29 cells. Put plainly: Growth inhibitory effect against cancer cell lines (3H-thymidine uptake), HT-29. To be noted: Homo sapiens, HT-29, inhibition of 3H-thymidine uptake; test substance 18 hrs, then 3H-thymidine 6 hrs; triplicate. The essentials: as §1
The subject of the next assay is p15 protein. Put plainly: Evaluation of p15 induction activity (Western blotting). To be noted: test substance 0.1 μM, 24 hrs, ACHN cells or HT-29 cells, compared to DMSO, n=2. The essentials:
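p15 protein quantified by densitometry of anti-p15 Western blots (10 μg protein per lane, mean of n=2). Samples came from HT-29 or ACHN cells given 0.1 μM compound for 24 h after 24 h plating, with DMSO as control.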

The next assay relates to p27 protein. Put plainly: p27 protein induction test (Western blotting). To be noted: test substance (0.1 1M), 24 hrs, ACHN cells or HT-29 cells, compared to DMSO, n=2. The method, then: ACHN cells or HT-29 cells were cultured in a 6 well plate at 2.5×10^5 cells/1.8 mL/well for 24 hrs, a test substance ([…]) dissolved in DMSO was added. After 24 hrs, cells were detached using trypsin-EDTA (ethylene diamine tetraacetic acid) and solubilized with NuPAGE LDS sample buffer (Invitrogen). Using an RC DC protein assay kit (BIO-RAD), the protein concentration of the sample was quantitated, and a sample in an amount corresponding to 10 μg of BSA (bovine serum albumin) was analyzed by Western blotting using an anti-p27 antibody. The density of the band stained with the anti-p27 antibody was measured by a densitometer to quantify the amount of p27 protein. As a control, DMSO was used and the test was performed with n=2 and the average protein amount was determined.
(In general: A western blot detects proteins with antibodies after separation by electrophoresis.)

For orientation: IC50 means the concentration needed to halve the response being measured. A word on the fold induction: it is the signal under treatment as a multiple of the control signal. Low values mean little rise in signal, high ones a large rise in signal.

Consider `C#Cc1ccc(Nc2cc(=O)n(C)c3c2c(=O)n(C2CC2)c(=O)n3-c2cccc(NS(=O)(=O)CC)c2)c(F)c1` [Example 1-289], for which the IC50 in assay [1] and in assay [2] was less than 10 nM each time. Besides, the fold induction at 0.1 µM in the assay with p15 protein and in the assay on p27 protein was no less than 1.5 in each case.
As for `C#Cc1ccc(Nc2cc(=O)n(C)c3c2c(=O)n(C2CC2)c(=O)n3-c2cccc(NS(C)(=O)=O)c2)cc1` [Example 1-290], the IC50 was 10 to 100 nM in assay [1] and less than 10 nM in assay [2]. Moreover, the fold induction at 0.1 µM in the assay with p15 protein and with p27 protein was no less than 1.5 each time.
On to `Cn1c(=O)cc(Nc2ccc(CCF)cc2)c2c(=O)n(C3CC3)c(=O)n(-c3ccccc3)c21` [Example 1-293], for which the IC50 in assay [1] and in assay [2] was 100 to 1000 nM each time. Moreover, the fold induction at 0.1 µM in the assay on p15 protein and with p27 protein was no less than 1.5 each time.
Turning to `CCNS(=O)(=O)c1cccc(-n2c(=O)n(C3CC3)c(=O)c3c(Nc4ccc(Br)cc4F)cc(=O)n(C)c32)c1` [Example 1-295], the IC50 in assay [1] lay within 100 to 1000 nM; in assay [2] it was 10 to 100 nM. In addition, the fold induction at 0.1 µM in the assay on p15 protein and in the assay on p27 protein was no less than 1.5 each time.
With `CCc1ccc(Nc2cc(=O)n(C)c3c2c(=O)n(C2CC2)c(=O)n3-c2cccc(NC(C)=O)c2)c(F)c1` [Example 1-296], the IC50 is 100 to 1000 nM in assay [1] and less than 10 nM in assay [2]. In addition, the fold induction at 0.1 µM with p15 protein and in the assay with p27 protein was no less than 1.5 in each case.
As for `CC(=O)Nc1cccc(-n2c(=O)n(C3CC3)c(=O)c3c(Nc4ccc(I)cc4F)cc(=O)n(C)c32)c1` [Example 1-297], the IC50 in assay [1] is 10 to 100 nM; in assay [2] it was less than 10 nM. Also, the fold induction at 0.1 µM in the assay with p15 protein and in the assay on p27 protein was no less than 1.5 throughout.
Take `C#Cc1ccc(Nc2cc(=O)n(C)c3c2c(=O)n(C2CC2)c(=O)n3-c2cccc(NS(=O)(=O)CC)c2)cc1` [Example 1-298]: the figures for the IC50 in assay [1] and in assay [2] were 10 to 100 nM and less than 10 nM, respectively. The fold induction at 0.1 µM in the assay on p15 protein and in the assay with p27 protein was no less than 1.5 each time.
For `Cn1c(=O)cc(Nc2ccc(C(F)(F)F)cc2F)c2c(=O)n(C3CC3)c(=O)n(-c3cccc(NS(C)(=O)=O)c3)c21` [Example 1-301], the IC50 is 100 to 1000 nM in assay [1] and 10 to 100 nM in assay [2]. Also, the fold induction at 0.1 µM with p15 protein and in the assay with p27 protein was no less than 1.5 each time.
With `Cn1c(=O)cc(Nc2ccc(Br)cc2F)c2c(=O)n(C3CC3)c(=O)n(-c3cccc(S(=O)(=O)N4CCCCC4)c3)c21` [Example 1-317], the IC50 is 100 to 1000 nM in assay [1] and 10 to 100 nM in assay [2]. The fold induction at 0.1 µM in the assay with p15 protein and in the assay on p27 protein was no less than 1.5 in each case.
On to `Cn1c(=O)cc(Nc2ccc(Br)cc2F)c2c(=O)n(C3CC3)c(=O)n(-c3cccc(S(=O)(=O)N4CCCC4)c3)c21` [Example 1-318], for which the results for the IC50 in assay [1] and in assay [2] were 100 to 1000 nM and less than 10 nM, respectively. Besides, the fold induction at 0.1 µM in the assay on p15 protein and with p27 protein was no less than 1.5 throughout.
Regarding `CC(C)S(=O)(=O)Nc1cccc(-n2c(=O)n(C3CC3)c(=O)c3c(Nc4ccc(I)cc4F)cc(=O)n(C)c32)c1` [Example 1-319], the IC50 in assay [1] and in assay [2] was less than 10 nM throughout. Further, the fold induction at 0.1 µM in the assay on p15 protein and in the assay on p27 protein was no less than 1.5 throughout.
For the molecule `C#Cc1ccc(Nc2cc(=O)n(C)c3c2c(=O)n(C2CC2)c(=O)n3-c2cccc(NS(=O)(=O)CCC)c2)c(F)c1` [Example 1-320], the IC50 is 10 to 100 nM in assay [1] and less than 10 nM in assay [2]. In addition, the fold induction at 0.1 µM in the assay on p15 protein and in the assay with p27 protein was no less than 1.5 each time.
As for `Cn1c(=O)cc(Nc2ccc(I)cc2Cl)c2c(=O)n(C3CC3)c(=O)n(-c3cccc(NS(C)(=O)=O)c3)c21` [Example 1-322], the IC50 in assay [1] is 10 to 100 nM; in assay [2], less than 10 nM. Also, the fold induction at 0.1 µM in the assay on p15 protein and with p27 protein was no less than 1.5 in each case.
For the molecule `CNC(=O)Nc1cccc(-n2c(=O)n(C3CC3)c(=O)c3c(Nc4ccc(Br)cc4F)cc(=O)n(C)c32)c1` [Example 1-325], the IC50 in assay [1] was in the range of 100 to 1000 nM; in assay [2] it was 10 to 100 nM. Moreover, the fold induction at 0.1 µM in the assay on p15 protein and in the assay with p27 protein was no less than 1.5 throughout.
`CONC(=O)Nc1cccc(-n2c(=O)n(C3CC3)c(=O)c3c(Nc4ccc(Br)cc4F)cc(=O)n(C)c32)c1` [Example 1-327]: the IC50 in assay [1] was 100 to 1000 nM; in assay [2], 10 to 100 nM. In addition, the fold induction at 0.1 µM with p15 protein and in the assay with p27 protein was no less than 1.5 throughout.
With `Cn1c(=O)cc(Nc2ccc3sccc3c2)c2c(=O)n(C3CC3)c(=O)n(-c3ccccc3)c21` [Example 1-328], the IC50 in assay [1] lay in the range of 100 to 1000 nM; in assay [2] it was 10 to 100 nM. Further, the fold induction at 0.1 µM in the assay on p15 protein and with p27 protein was no less than 1.5 each time.
Consider `C#Cc1ccc(Nc2cc(=O)n(C)c3c2c(=O)n(C2CC2)c(=O)n3-c2cccc(NS(C)(=O)=O)c2)c(C)c1` [Example 1-336], for which the IC50 was 10 to 100 nM in assay [1] and less than 10 nM in assay [2]. Also, the fold induction at 0.1 µM in the assay with p15 protein and with p27 protein was no less than 1.5 each time.
Take `C#Cc1ccc(Nc2cc(=O)n(C)c3c2c(=O)n(C2CC2)c(=O)n3-c2cccc(NS(C)(=O)=O)c2)c(Cl)c1` [Example 1-337]: the IC50 in assay [1] is 10 to 100 nM; in assay [2] it was less than 10 nM. Further, the fold induction at 0.1 µM in the assay on p15 protein and in the assay with p27 protein was no less than 1.5 each time.
Regarding `Cn1c(=O)cc(Nc2ccc(CCF)cc2F)c2c(=O)n(C3CC3)c(=O)n(-c3cccc(NS(C)(=O)=O)c3)c21` [Example 1-338], the figures for the IC50 in assay [1] and in assay [2] were 10 to 100 nM and less than 10 nM, respectively. Also, the fold induction at 0.1 µM with p15 protein and in the assay on p27 protein was no less than 1.5 in each case.
As to `Cc1cc(I)ccc1Nc1cc(=O)n(C)c2c1c(=O)n(C1CC1)c(=O)n2-c1cccc(NS(C)(=O)=O)c1` [Example 1-340], the figures for the IC50 in assay [1] and in assay [2] were 10 to 100 nM and less than 10 nM, respectively. Also, the fold induction at 0.1 µM with p15 protein and in the assay on p27 protein was no less than 1.5 throughout.
In the case of `CSc1ccc(Nc2cc(=O)n(C)c3c2c(=O)n(C2CC2)c(=O)n3-c2cccc(NC(C)=O)c2)c(F)c1` [Example 1-341], the IC50 in assay [1] was 10 to 100 nM; in assay [2] it was less than 10 nM. Further, the fold induction at 0.1 µM with p15 protein and with p27 protein was no less than 1.5 each time.
In the case of `CC(=O)Nc1cccc(-n2c(=O)n(C3CC3)c(=O)c3c(Nc4ccc(CCF)cc4F)cc(=O)n(C)c32)c1` [Example 1-342], the IC50 was 100 to 1000 nM in assay [1] and less than 10 nM in assay [2]. For the same molecule, the fold induction at 0.1 µM in the assay on p15 protein and in the assay with p27 protein was no less than 1.5 each time.
Turning to `Cc1c(=O)n(C)c(Nc2ccc(Br)cc2F)c2c(=O)n(C3CC3)c(=O)n(-c3cccc(NS(C)(=O)=O)c3)c12` [Example 3-4], the values for the IC50 in assay [1] and in assay [2] were 10 to 100 nM and less than 10 nM, respectively. The fold induction at 0.1 µM in the assay on p15 protein and in the assay on p27 protein was no less than 1.5 in each case.
